Measured values published in PubChem BioAssay (NCI).
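A five-concentration, 48-hour dose response in 96-well plates underlies each endpoint, interpolated linearly between surrounding concentrations. At the GI50, growth is halved. TGI marks complete inhibition of growth.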

Experiments:
Assay in all cases: DTP human tumour cell line panel, 48 h
T-47D breast = test system: T-47D breast
OVCAR-8 ovarian = test system: OVCAR-8 ovarian
HCC-2998 colon = test system: HCC-2998 colon
HCT-116 colon = test system: HCT-116 colon
A498 renal = test system: A498 renal
EKVX NSCLC = test system: EKVX NSCLC
HS 578T breast = test system: HS 578T breast
SN12C renal = test system: SN12C renal
OVCAR-5 ovarian = test system: OVCAR-5 ovarian
BT-549 breast = test system: BT-549 breast
HCT-15 colon = test system: HCT-15 colon
SF-268 CNS = test system: SF-268 CNS
SNB-75 CNS = test system: SNB-75 CNS
SF-539 CNS = test system: SF-539 CNS
HOP-92 NSCLC = test system: HOP-92 NSCLC
MALME-3M melanoma = test system: MALME-3M melanoma
U251 CNS = test system: U251 CNS
RPMI-8226 leukemia = test system: RPMI-8226 leukemia
786-0 renal = test system: 786-0 renal
M14 melanoma = test system: M14 melanoma
NCI/ADR-RES ovarian = test system: NCI/ADR-RES ovarian
UACC-257 melanoma = test system: UACC-257 melanoma
SK-MEL-2 melanoma = test system: SK-MEL-2 melanoma
CAKI-1 renal = test system: CAKI-1 renal
K-562 leukemia = test system: K-562 leukemia
MDA-MB-231 breast = test system: MDA-MB-231 breast
SF-295 CNS = test system: SF-295 CNS
UACC-62 melanoma = test system: UACC-62 melanoma
A549 NSCLC = test system: A549 NSCLC
COLO 205 colon = test system: COLO 205 colon
TK-10 renal = test system: TK-10 renal
MCF7 breast = test system: MCF7 breast
ACHN renal = test system: ACHN renal
LOX IMVI melanoma = test system: LOX IMVI melanoma
SW-620 colon = test system: SW-620 colon
NCI-H460 lung = test system: NCI-H460 lung
OVCAR-4 ovarian = test system: OVCAR-4 ovarian
SNB-19 CNS = test system: SNB-19 CNS
NCI-H226 lung = test system: NCI-H226 lung
MDA-MB-435 = test system: MDA-MB-435
NCI-H23 lung = test system: NCI-H23 lung
UO-31 renal = test system: UO-31 renal
RXF 393 renal = test system: RXF 393 renal
NCI-H522 lung = test system: NCI-H522 lung
OVCAR-3 ovarian = test system: OVCAR-3 ovarian
HT29 colon = test system: HT29 colon
HOP-62 NSCLC = test system: HOP-62 NSCLC
PC-3 prostate = test system: PC-3 prostate
SK-OV-3 ovarian = test system: SK-OV-3 ovarian
DU-145 prostate = test system: DU-145 prostate
SK-MEL-5 melanoma = test system: SK-MEL-5 melanoma
KM12 colon = test system: KM12 colon
IGROV1 ovarian = test system: IGROV1 ovarian
SK-MEL-28 melanoma = test system: SK-MEL-28 melanoma
MOLT-4 leukemia = test system: MOLT-4 leukemia
CCRF-CEM leukemia = test system: CCRF-CEM leukemia

Fc1cc(-c2csc3n[nH]c(=S)n23)c(Cl)cc1Cl
GI50 (T-47D breast): 53.3 µM
TGI (T-47D breast): > 100 µM
GI50 (OVCAR-8 ovarian): 44.5 µM
TGI (OVCAR-8 ovarian): > 100 µM
GI50 (HCC-2998 colon): 25.8 µM
TGI (HCC-2998 colon): 70.1 µM
GI50 (HCT-116 colon): 27.3 µM
TGI (HCT-116 colon): 88.8 µM
GI50 (A498 renal): 19 µM
TGI (A498 renal): 47.1 µM
GI50 (EKVX NSCLC): 21.1 µM
TGI (EKVX NSCLC): 66 µM
GI50 (HS 578T breast): 28.8 µM
TGI (HS 578T breast): 92.7 µM
GI50 (SN12C renal): 22.4 µM
TGI (SN12C renal): 58.8 µM
GI50 (OVCAR-5 ovarian): 41 µM
TGI (OVCAR-5 ovarian): > 100 µM
GI50 (BT-549 breast): 36.4 µM
TGI (BT-549 breast): > 100 µM
GI50 (HCT-15 colon): 32.8 µM
TGI (HCT-15 colon): > 100 µM
GI50 (SF-268 CNS): 35.5 µM
TGI (SF-268 CNS): > 100 µM
GI50 (SNB-75 CNS): 22.1 µM
TGI (SNB-75 CNS): 50 µM
GI50 (SF-539 CNS): 24.7 µM
TGI (SF-539 CNS): 41 µM
GI50 (HOP-92 NSCLC): 21.1 µM
TGI (HOP-92 NSCLC): 55.3 µM
GI50 (MALME-3M melanoma): 41.1 µM
TGI (MALME-3M melanoma): > 100 µM
GI50 (U251 CNS): 17.1 µM
TGI (U251 CNS): 35.4 µM
GI50 (RPMI-8226 leukemia): 23.5 µM
TGI (RPMI-8226 leukemia): > 100 µM
GI50 (786-0 renal): 22.2 µM
TGI (786-0 renal): 42.7 µM
GI50 (M14 melanoma): 39.9 µM
TGI (M14 melanoma): > 100 µM
GI50 (NCI/ADR-RES ovarian): 37.6 µM
TGI (NCI/ADR-RES ovarian): > 100 µM
GI50 (UACC-257 melanoma): 93.5 µM
TGI (UACC-257 melanoma): > 100 µM
GI50 (SK-MEL-2 melanoma): 26.7 µM
TGI (SK-MEL-2 melanoma): 76.5 µM
GI50 (CAKI-1 renal): 33 µM
TGI (CAKI-1 renal): > 100 µM
GI50 (K-562 leukemia): 32.2 µM
TGI (K-562 leukemia): > 100 µM
GI50 (MDA-MB-231 breast): 14.5 µM
TGI (MDA-MB-231 breast): 40.1 µM
GI50 (SF-295 CNS): 17.8 µM
TGI (SF-295 CNS): 50.5 µM
GI50 (UACC-62 melanoma): 18.6 µM
TGI (UACC-62 melanoma): 48.4 µM
GI50 (A549 NSCLC): 42 µM
TGI (A549 NSCLC): > 100 µM
GI50 (COLO 205 colon): 41.7 µM
TGI (COLO 205 colon): > 100 µM
GI50 (TK-10 renal): 38.5 µM
TGI (TK-10 renal): > 100 µM
GI50 (MCF7 breast): 48.4 µM
TGI (MCF7 breast): > 100 µM
GI50 (ACHN renal): 23.7 µM
TGI (ACHN renal): 57.5 µM
GI50 (LOX IMVI melanoma): 37.2 µM
TGI (LOX IMVI melanoma): > 100 µM
GI50 (SW-620 colon): > 100 µM
TGI (SW-620 colon): > 100 µM
GI50 (NCI-H460 lung): 35.4 µM
TGI (NCI-H460 lung): > 100 µM
GI50 (OVCAR-4 ovarian): 27.7 µM
TGI (OVCAR-4 ovarian): 73.9 µM
GI50 (SNB-19 CNS): 47 µM
TGI (SNB-19 CNS): > 100 µM
GI50 (NCI-H226 lung): 19.6 µM
TGI (NCI-H226 lung): 59.7 µM
GI50 (MDA-MB-435): 55.8 µM
TGI (MDA-MB-435): > 100 µM
GI50 (NCI-H23 lung): 23.5 µM
TGI (NCI-H23 lung): 78.8 µM
GI50 (UO-31 renal): 43 µM
TGI (UO-31 renal): > 100 µM
GI50 (RXF 393 renal): 21.6 µM
TGI (RXF 393 renal): 63 µM
GI50 (NCI-H522 lung): 39.2 µM
TGI (NCI-H522 lung): > 100 µM
GI50 (OVCAR-3 ovarian): 34.9 µM
TGI (OVCAR-3 ovarian): > 100 µM
GI50 (HT29 colon): 65.8 µM
TGI (HT29 colon): > 100 µM
GI50 (HOP-62 NSCLC): 20.1 µM
TGI (HOP-62 NSCLC): 38.8 µM
GI50 (PC-3 prostate): 31.4 µM
TGI (PC-3 prostate): > 100 µM
GI50 (SK-OV-3 ovarian): 35.6 µM
TGI (SK-OV-3 ovarian): > 100 µM
GI50 (DU-145 prostate): 32.5 µM
TGI (DU-145 prostate): > 100 µM
GI50 (SK-MEL-5 melanoma): 55.7 µM
TGI (SK-MEL-5 melanoma): > 100 µM
GI50 (KM12 colon): 32.6 µM
TGI (KM12 colon): > 100 µM
GI50 (IGROV1 ovarian): 58.9 µM
TGI (IGROV1 ovarian): > 100 µM
GI50 (SK-MEL-28 melanoma): 48.2 µM
TGI (SK-MEL-28 melanoma): > 100 µM

CCOc1c(OC)cc(C2c3cc4c(c(OCC)c3CC3COC(=O)C32)OCO4)cc1OC (stereo not drawn)
TGI (T-47D breast): > 100 µM
TGI (OVCAR-8 ovarian): 6.38 µM
TGI (HCT-116 colon): 11.5 µM
TGI (A498 renal): 67.4 µM
TGI (EKVX NSCLC): > 100 µM
TGI (HS 578T breast): 21.9 µM
TGI (SN12C renal): 6.9 µM
TGI (OVCAR-5 ovarian): 15.9 µM
TGI (BT-549 breast): 64 µM
TGI (HCT-15 colon): 2.68 µM
TGI (SF-268 CNS): 92.6 µM
TGI (SNB-75 CNS): > 100 µM
TGI (SF-539 CNS): 4.91 µM
TGI (HOP-92 NSCLC): > 100 µM
TGI (MOLT-4 leukemia): 7.69 µM
TGI (MALME-3M melanoma): 79.8 µM
TGI (U251 CNS): 11.6 µM
TGI (RPMI-8226 leukemia): 59.3 µM
TGI (786-0 renal): 22.2 µM
TGI (M14 melanoma): 43.3 µM
TGI (NCI/ADR-RES ovarian): 7.17 µM
TGI (UACC-257 melanoma): 49.1 µM
TGI (SK-MEL-2 melanoma): > 100 µM
TGI (CAKI-1 renal): 55.7 µM
TGI (K-562 leukemia): 19.4 µM
TGI (MDA-MB-231 breast): 6.47 µM
TGI (SF-295 CNS): 3.97 µM
TGI (UACC-62 melanoma): 2.27 µM
TGI (A549 NSCLC): 14.2 µM
TGI (COLO 205 colon): 6.98 µM
TGI (TK-10 renal): 69.6 µM
TGI (MCF7 breast): > 100 µM
TGI (ACHN renal): 20.9 µM
TGI (LOX IMVI melanoma): 14 µM
TGI (SW-620 colon): > 100 µM
TGI (NCI-H460 lung): > 100 µM
TGI (OVCAR-4 ovarian): > 100 µM
TGI (SNB-19 CNS): > 100 µM
TGI (NCI-H226 lung): 46.9 µM
TGI (MDA-MB-435): 0.898 µM
TGI (NCI-H23 lung): 5.9 µM
TGI (UO-31 renal): 27.3 µM
TGI (RXF 393 renal): > 100 µM
TGI (NCI-H522 lung): 16.8 µM
TGI (OVCAR-3 ovarian): 5.14 µM
TGI (CCRF-CEM leukemia): 30.1 µM
TGI (HT29 colon): 10.4 µM
TGI (HOP-62 NSCLC): 17.8 µM
TGI (PC-3 prostate): > 100 µM
TGI (SK-OV-3 ovarian): > 100 µM
TGI (DU-145 prostate): 12.1 µM
TGI (SK-MEL-5 melanoma): 14.5 µM
TGI (KM12 colon): 11.3 µM
TGI (IGROV1 ovarian): 80.5 µM
TGI (SK-MEL-28 melanoma): > 100 µM
